From patent US9695155B2, “Herbicidal substituted pyrimidinyloxy benzene compounds” (E. I. DU PONT DE NEMOURS AND COMPANY, priority 2013, dated 2017)

Tests used:
[1] = system: waterhemp; assay: Test E preemergence; type: in vivo, Amaranthus rudis; settings: for Waterhemp plant response rating: scale 0 to 100 (0 no effect, 100 complete control); for Plant response rating, Waterhemp: scale 0 to 100, 0 no effect, 100 complete control
Outline: (§1)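 Response was scored visually on a 0-100 scale (100 = complete control) versus controls after 14 to 21 days in the greenhouse. Test chemicals, formulated with surfactant in a non-phytotoxic solvent mixture, had been applied preemergence to seeds in silt loam soil or postemergence to 1- to 4-leaf plants in potting medium.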

[2] = system: green foxtail; assay: Test E preemergence; type: in vivo, Setaria viridis; settings: for Foxtail, Green plant response rating: scale 0 to 100 (0 no effect, 100 complete control); for Plant response rating, Foxtail, Green: scale 0 to 100, 0 no effect, 100 complete control
Outline: as §1

[3] = system: palmer pigweed; assay: Test E postemergence; type: in vivo, Amaranthus palmeri; settings: Postemergence, scale 0 to 100
Outline: as §1

[4] = system: barnyardgrass; assay: Test E preemergence; type: in vivo, Echinochloa crus-galli; settings: for Barnyardgrass plant response rating: scale 0 to 100 (0 no effect, 100 complete control); for Plant response rating, Barnyardgrass: scale 0 to 100, 0 no effect, 100 complete control
Outline: as §1

[5] = system: ragweed; assay: Test E preemergence; type: in vivo, Ambrosia elatior; settings: for Ragweed plant response rating: scale 0 to 100 (0 no effect, 100 complete control); for Plant response rating, Ragweed: scale 0 to 100, 0 no effect, 100 complete control
Outline: as §1

[6] = system: sandbur; assay: Test E preemergence; type: in vivo, Cenchrus echinatus; settings: for Sandbur plant response rating: scale 0 to 100 (0 no effect, 100 complete control); for Plant response rating, Sandbur: scale 0 to 100, 0 no effect, 100 complete control
Outline: as §1

[7] = system: hairy beggarticks; assay: Test E postemergence; type: in vivo, Bidens pilosa; settings: Postemergence, scale 0 to 100
Outline: as §1

[8] = system: goosegrass; assay: Test E preemergence; type: in vivo, Eleusine indica; settings: for Goosegrass plant response rating: scale 0 to 100 (0 no effect, 100 complete control); for Plant response rating, Goosegrass: scale 0 to 100, 0 no effect, 100 complete control
Outline: as §1

[9] = system: field bindweed; assay: Test E postemergence; type: in vivo, Convolvulus arvensis; settings: Postemergence, scale 0 to 100
Outline: as §1

[10] = system: surinam grass; assay: Test E preemergence; type: in vivo, Brachiaria decumbens; settings: for Surinam Grass plant response rating: scale 0 to 100 (0 no effect, 100 complete control); for Plant response rating, Surinam Grass: scale 0 to 100, 0 no effect, 100 complete control
Outline: as §1

[11] = system: Italian ryegrass; assay: Test E preemergence; type: in vivo, Lolium multiflorum; settings: for Ryegrass, Italian plant response rating: scale 0 to 100 (0 no effect, 100 complete control); for Plant response rating, Ryegrass, Italian: scale 0 to 100, 0 no effect, 100 complete control
Outline: as §1

[12] = system: kochia; assay: Test E preemergence; type: in vivo, Kochia scoparia; settings: for Kochia plant response rating: scale 0 to 100 (0 no effect, 100 complete control); for Plant response rating, Kochia: scale 0 to 100, 0 no effect, 100 complete control
Outline: as §1

[13] = system: fall panicum; assay: Test E preemergence; type: in vivo, Panicum dichotomiflorum; settings: for Panicum, Fall plant response rating: scale 0 to 100 (0 no effect, 100 complete control); for Plant response rating, Panicum, Fall: scale 0 to 100, 0 no effect, 100 complete control
Outline: as §1

[14] = system: wild poinsettia; assay: Test E postemergence; type: in vivo, Euphorbia heterophylla; settings: Postemergence, scale 0 to 100
Outline: as §1

[15] = system: giant foxtail; assay: Test E preemergence; type: in vivo, Setaria faberii; settings: for Foxtail, Giant plant response rating: scale 0 to 100 (0 no effect, 100 complete control); for Plant response rating, Foxtail, Giant: scale 0 to 100, 0 no effect, 100 complete control
Outline: as §1

[16] = system: nightshade; assay: Test E preemergence; type: in vivo, Solanum ptycanthum; settings: for Nightshade plant response rating: scale 0 to 100 (0 no effect, 100 complete control); for Plant response rating, Nightshade: scale 0 to 100, 0 no effect, 100 complete control
Outline: as §1

N#Cc1cccc(Oc2ncc(Cl)cn2)c1-n1cc(Cl)cn1 [Compound 72]
Waterhemp plant response rating ([1]; 16 g ai/ha): 95 | Waterhemp plant response rating ([1]; 31 g ai/ha): 98 | Waterhemp plant response rating ([1]; 62 g ai/ha): 100 | Plant response rating, Waterhemp ([1]; 125 g ai/ha): 100 | Plant response rating, Waterhemp ([1]; 250 g ai/ha): 100 | Foxtail, Green plant response rating ([2]; 16 g ai/ha): 30 | Foxtail, Green plant response rating ([2]; 31 g ai/ha): 30 | Foxtail, Green plant response rating ([2]; 62 g ai/ha): 95 | Plant response rating, Foxtail, Green ([2]; 125 g ai/ha): 100 | Plant response rating, Foxtail, Green ([2]; 250 g ai/ha): 100 | Plant response rating, Pigweed, Palmer ([3]; 62 g ai/ha): 75 | Plant response rating, Pigweed, Palmer ([3]; 125 g ai/ha): 90 | Barnyardgrass plant response rating ([4]; 16 g ai/ha, preemergence): 0 | Barnyardgrass plant response rating ([4]; 31 g ai/ha, preemergence): 0 | Plant response rating, Barnyardgrass ([4]; Preemergence, 62 g ai/ha): 15 | Plant response rating, Barnyardgrass ([4]; preemergence, 125 g ai/ha): 35 | Plant response rating, Barnyardgrass ([4]; preemergence, 250 g ai/ha): 90 | Ragweed plant response rating ([5]; 16 g ai/ha): 0 | Ragweed plant response rating ([5]; 31 g ai/ha): 0 | Ragweed plant response rating ([5]; 62 g ai/ha): 5 | Plant response rating, Ragweed ([5]; 125 g ai/ha): 50 | Plant response rating, Ragweed ([5]; 250 g ai/ha): 95 | Sandbur plant response rating ([6]; 16 g ai/ha): 25 | Sandbur plant response rating ([6]; 31 g ai/ha): 40 | Sandbur plant response rating ([6]; 62 g ai/ha): 30 | Plant response rating, Sandbur ([6]; 125 g ai/ha): 35 | Plant response rating, Sandbur ([6]; 250 g ai/ha): 50 | Plant response rating, Beggarticks ([7]; 62 g ai/ha): 70 | Plant response rating, Beggarticks ([7]; 125 g ai/ha): 80 | Goosegrass plant response rating ([8]; 16 g ai/ha): 0 | Goosegrass plant response rating ([8]; 31 g ai/ha): 60 | Goosegrass plant response rating ([8]; 62 g ai/ha): 80 | Plant response rating, Goosegrass ([8]; 125 g ai/ha): 98 | Plant response rating, Goosegrass ([8]; 250 g ai/ha): 100 | Plant response rating, Field Bindweed ([9]; 62 g ai/ha): 70 | Plant response rating, Field Bindweed ([9]; 125 g ai/ha): 80 | Surinam Grass plant response rating ([10]; 16 g ai/ha): 20 | Surinam Grass plant response rating ([10]; 31 g ai/ha): 20 | Surinam Grass plant response rating ([10]; 62 g ai/ha): 20 | Plant response rating, Surinam Grass ([10]; 125 g ai/ha): 10 | Plant response rating, Surinam Grass ([10]; 250 g ai/ha): 30 | Ryegrass, Italian plant response rating ([11]; 16 g ai/ha): 0 | Ryegrass, Italian plant response rating ([11]; 31 g ai/ha): 15 | Ryegrass, Italian plant response rating ([11]; 62 g ai/ha): 20 | Plant response rating, Ryegrass, Italian ([11]; 125 g ai/ha): 35 | Plant response rating, Ryegrass, Italian ([11]; 250 g ai/ha): 75 | Kochia plant response rating ([12]; 16 g ai/ha): 10 | Kochia plant response rating ([12]; 31 g ai/ha): 75 | Kochia plant response rating ([12]; 62 g ai/ha): 98 | Plant response rating, Kochia ([12]; 125 g ai/ha): 100 | Plant response rating, Kochia ([12]; 250 g ai/ha): 100 | Panicum, Fall plant response rating ([13]; 16 g ai/ha): 0 | Panicum, Fall plant response rating ([13]; 31 g ai/ha): 65 | Panicum, Fall plant response rating ([13]; 62 g ai/ha): 98 | Plant response rating, Panicum, Fall ([13]; 125 g ai/ha): 100 | Plant response rating, Panicum, Fall ([13]; 250 g ai/ha): 100 | Plant response rating, Poinsettia, Wild ([14]; 62 g ai/ha): 55 | Plant response rating, Poinsettia, Wild ([14]; 125 g ai/ha): 60 | Foxtail, Giant plant response rating ([15]; 16 g ai/ha): 35 | Foxtail, Giant plant response rating ([15]; 31 g ai/ha): 35 | Foxtail, Giant plant response rating ([15]; 62 g ai/ha): 95 | Plant response rating, Foxtail, Giant ([15]; 125 g ai/ha): 98 | Plant response rating, Foxtail, Giant ([15]; 250 g ai/ha): 100 | Nightshade plant response rating ([16]; 16 g ai/ha): 0 | Nightshade plant response rating ([16]; 31 g ai/ha): 65 | Nightshade plant response rating ([16]; 62 g ai/ha): 100 | Plant response rating, Nightshade ([16]; 125 g ai/ha): 98 | Plant response rating, Nightshade ([16]; 250 g ai/ha): 100
